# Entries after “also recorded” stand apart in the source; their conditions may differ.
# Assays:
# [1] = Hydrolysis rate category of organosilanes and organosiloxanes, approximately based on half lives; assay type: physicochemical; set-up: key: Slow - 1 month; Very Slow - Several months; Very Fast - days; Fast - weeks
# [2] = system: microbial culture grown on TBOS; assay: Aerobic cometabolism of TCE by microorganisms grown on TBOS; assay type: cell-based
# Description: (§1) Gas phase TCE and cis-DCE concentrations were measured by injecting 10-100 μL of a gaseous sample into a HP-5890 gas chromatograph connected to a photoionization detector (PID) followed by a flame ionization detector (FID). Chromatographic separation was carried-out with a 30-m megabore GSQ-PLOT column from J&W Scientific (Folsom, Calif.). The GC operating conditions were as follows: injector temperature, 250° C.; detector temperature: 280° C.; the column was initially maintained at 40° C. for 2 minutes and then heated to 220° C. at 15° C./minute.
# The microcosms for aerobic cometabolism studies were carried out as described in Example 1 under the heading “Aerobic Biodegradation.” The bacterial culture used was that described in Example 1 under the heading “Enrichment of Aerobic Culture.” cis-DCE and TCE stocks in water were prepared by saturating distilled water with cis-DCE and TCE at 30° C. TCE and cis-DCE dissolved in the water to their solubility limit. The aqueous phase from these stocks was then added to the microcosms to yield the required concentrations (0.8 mg/L for TCE and 2 mg/L for cis-DCE). TBOS was introduced into the microcosms by injecting pure TBOS liquid using a microliter syringe.
# Microbial culture from the wastewater treatment plant of Corvallis, Oregon grown on TBOS was tested for its ability to cometabolize TCE and cis-DCE. Microcosms were constructed with 4.0 mg (dry weight) of culture enriched from a continuous-feed batch reactor according to the procedure described in Example 1. Three microcosms and a control were evaluated: a poisoned control (i.e., a killed microcosm) with TBOS and TCE; a biologically active microcosm with TBOS and TCE; and a resting cell microcosm with only TCE; and an acetylene block microcosm with TBOS and TCE (having acetylene in the head space). The acetylene block experiment was used to investigate the presence of a monooxygenase enzyme.
# [3] = system: indigenous microorganisms in groundwater (Lawrence Livermore Site 300); assay: Anaerobic reductive dechlorination of TCE in Site 300 groundwater microcosms containing TKEBS; assay type: cell-based
# Description: In initial studies, groundwater from Lawrence Livermore Laboratory(Site 300, D3 Well) was used to make up six different microcosms. Two of these microcosms were sterilized to form controls, one by the addition of mercuric chloride and the other by autoclaving. Two microcosms were amended with sodium benzoate (200 mg/L) as an additional carbon source and the last two were left untouched.
# Later experiments were carried out to re-evaluate the anaerobic TCE transformation rates driven by TKEBS transformation. The culture used for these biodegradation studies were indigenous microorganisms stimulated from the groundwater (as described in Example 1) collected from the same site initially studied. The anaerobic biodegradation studies were carried out using 1L media bottles. The microcosms were prepared in an anaerobic glove box and then purged using treated (to remove oxygen) nitrogen to remove the hydrogen and carbon dioxide introduced into the microcosms from the glove box.
# The groundwater was purged with treated nitrogen to remove all traces of TCE and cis-DCE prior to re-injection of TCE. Pure TCE was added to obtain concentrations of 100 mg/L(aqueous). […] The microcosms were analyzed for chlorinated ethenes, hydrogen, carbon dioxide, alcohols, and their fermentation products.
# [4] = system: Pt. Mugu groundwater and aquifer solids microcosm; assay: Anaerobic reductive dechlorination of TCE in Pt. Mugu microcosm amended with TBOS; assay type: cell-based; conditions: TCE 5 mg/L, TBOS 1 g/L, Pt. Mugu microcosm
# [5] = system: microbially active Site 300 groundwater microcosm; assay: Reductive dechlorination of TCE in Site 300 groundwater microcosm with TBOS and TKEBS added; assay type: cell-based; conditions: TCE additions at 0, 135, 160 days
# Description: The TCE dechlorination experiments were conducted in the same way as described in Example 3. In these experiments, however, TBOS and TKEBS were amended to samples of the groundwater microcosms.
# Shown in FIGS. 11a-11c is a microbial active version of a Site 300 microcosm with TBOS and TKEBS added. However in this case both ethybutanol and butanol are utilized, compared to the poisoned control where they accumulated. Acetate, butyrate and hydrogen are produced as a result of fermentation reactions. […] Three additions of TCE are transformed at 0, 135, and 160 days, with the corresponding increases in c-DCE occurring. Hydrogen is shown to be utilized upon TCE addition and produced once TCE transformation has stopped.
# [6] = Hydrolysis period of slow release compounds in bioremediation studies; assay type: physicochemical; conditions: TBOS to 1-butanol, TPOS to phenol
# From the text: These alcohols can then be used by the microorganisms to cometabolize halogenated organics, such as TCE, for example. As discussed in the Examples below, the decrease in TBOS in a poisoned (killed) control compared similarly to the nonpoisoned (live) microbially active system under anaerobic conditions. Microbial activity was indicated by the production of acetate, butanol, butyrate, and hydrogen in the live microcosms, and the lack of production in the poisoned control. […] Thus, TBOS is not directly degraded, but is first hydrolyzed by reactions with water to form 1-butanol, which can then be used to drive the aerobic cometabolism of chlorinated organics.
# [7] = Abiotic hydrolysis of TBOS and TKEBS in sterilized pH buffered solutions; assay type: physicochemical
# [8] = system: microbial culture grown on TBOS; assay: Aerobic cometabolism of cis-DCE by microorganisms grown on TBOS; assay type: cell-based; conditions: biologically active microcosm
# Description: as §1
# The microcosms for aerobic cometabolism studies were carried out as described in Example 1 under the heading “Aerobic Biodegradation.” The bacterial culture used was that described in Example 1 under the heading “Enrichment of Aerobic Culture.” cis-DCE and TCE stocks in water were prepared by saturating distilled water with cis-DCE and TCE at 30° C. TCE and cis-DCE dissolved in the water to their solubility limit. […]
# The microbial culture grown on TBOS was tested for its ability to cometabolize cis-DCE. […] Four microcosms and two controls were evaluated: a poisoned control with TBOS and cis-DCE; an autoclaved control with TBOS and cis-DCE; two biologically active microcosms with TBOS and cis-DCE; a resting cell microcosm with only cis-DCE; and an acetylene block microcosm with TBOS and cis-DCE.
# [9] = system: microbial culture grown on TBOS; conditions: cited from earlier work
# [10] = organosilanes, Table 1, rates approximately based on half lives
# [11] = organosiloxanes, Table 2, key given under Table 1
compound,measurement,setting,value
"CCC(=O)O[Si](OC(=O)CC)(OC(=O)CC)OC(=O)CC [compound 6, Silicon tetrapropionate]",Hydrolysis rate,[1]; [10],Fast
"ClC=C(Cl)Cl [TCE, Trichloroethylene]",TCE transformation in acetylene-blocked microcosm,"[2]; TBOS and TCE, acetylene in head space, in 140 hours",about 20%
same,time to complete cometabolism of TCE,"[2]; TCE 0.89 mg/L (1.6 μmol), microcosm with TBOS 20 mg/L added",≤ 65 h
same,"TCE cometabolism by resting cells, less than that achieved with TBOS addition","[2]; resting cells, no TBOS added",15-20%
same,anaerobic TCE transformation in initial experiments (in words),"[3]; 125 mL serum bottles, groundwater microcosms",complete transformation of TCE to cis-DCE
same,time for dechlorination of TCE to cis-DCE,"[3]; TCE 100 mg/L, September '97 groundwater containing TKEBS and 2-ethylbutanol, 30 °C",14 days
same,incubation time after which dechlorination of the substance was observed,[4],40 days
same,TCE transformation (in words),[5],rapidly transformed to c-DCE
"CC(=O)O[Si](OC(C)=O)(OC(C)=O)OC(C)=O [compound 5, Silicon tetraacetate]",Hydrolysis rate,[1]; [10],Very Fast
"CC(C)O[Si](OC(C)C)(OC(C)C)OC(C)C [compound 18, Tetrakis(1-methylethoxy) silane]",Hydrolysis rate,[1]; [10],Slow (Slow - 1 month)
"Cl/C=C\Cl [cis-DCE, cis-dichloroethylene]",incubation time after which dechlorination of the substance was observed,[4],about 90 days
"C=CCO[Si](OCC=C)(OCC=C)OCC=C [compound 11, Tetraallyloxy silane]",Hydrolysis rate,[1]; [10],Slow (Slow - 1 month)
CCCO[Si](OCCC)(OCCC)O[Si](OCCC)(OCCC)OCCC [compound 20],Hydrolysis rate,[1]; [11],Slow (Slow - 1 month)
"c1ccc(O[Si](Oc2ccccc2)(Oc2ccccc2)Oc2ccccc2)cc1 [No. 4, Tetraphenoxysilane]",period over which hydrolysis to the alcohol occurs,[6],weeks
"CCC(C)CO[Si](OCC(C)CC)(OCC(C)CC)OCC(C)CC (stereo not shown) [compound 13, Tetrakis(2-methylbutoxy) silane]",Hydrolysis rate,[1]; [10],Very Slow
CCCCO[Si](OCCCC)(OCCCC)O[Si](OCCCC)(OCCCC)OCCCC [compound 21],Hydrolysis rate,[1]; [11],Slow (Slow - 1 month)
"CCCCO[Si](OCCCC)(OCCCC)OCCCC [compound 2, Tetrabutoxysilane]",Hydrolysis rate,[1]; [10],Slow (Slow - 1 month)
Tetraphenoxysilane [compound 4],Hydrolysis rate,[1]; [10],Very Fast
"CCC(CC)CO[Si](OCC(CC)CC)(OCC(CC)CC)OCC(CC)CC [No. 3, Tetrakis(2-ethylbutoxy) silane]",rate of hydrolysis compared with TBOS,[7]; listed as TKEBS,much slower rate; also recorded: about an order of magnitude lower
same,Rates of Hydrolysis Based on 2-ethyl-butanol production,"[7]; pH 5.0, 30 °C, 10 mg/L",0.023 µmol/day
same,effect of temperature on hydrolysis,"[7]; pH 7, 10 mg/L, 15 °C vs 30 °C",Very little increase
same,Rates of Hydrolysis Based on 2-ethyl-butanol production,"[7]; pH 7.0, 15 °C, 10 mg/L",0.011 µmol/day
same,Rates of Hydrolysis Based on 2-ethyl-butanol production,"[7]; pH 7.0, 30 °C, 10 mg/L",0.012 µmol/day
same,factor of increase in rate of hydrolysis on ten-fold increase in concentration,"[7]; pH 7, 30 °C, 10 mg/L to 100 mg/L",10
same,Rates of Hydrolysis Based on 2-ethyl-butanol production,"[7]; pH 7.0, 30 °C, 100 mg/L",0.105 µmol/day
same,Rates of Hydrolysis Based on 2-ethyl-butanol production,"[7]; pH 7.8 (site groundwater), 30 °C, 10 mg/L",0.011 µmol/day
same,Rates of Hydrolysis Based on 2-ethyl-butanol production,"[7]; pH 9.0, 30 °C, 10 mg/L",0.022 µmol/day
Tetrakis(benzylmethoxy) silane [compound 16],Hydrolysis rate,[1]; [10],Fast
CCO[Si](OCC)(OCC)O[Si](OCC)(OCC)OCC [compound 19],Hydrolysis rate,[1]; [11],Slow (Slow - 1 month)
"CCCC(=O)O[Si](OC(=O)CCC)(OC(=O)CCC)OC(=O)CCC [compound 7, Silicon tetrabutyrate]",Hydrolysis rate,[1]; [10],Fast
Cl[C@@H]1O[C@@H]1Cl [cis-DCE epoxide],half-life of cis-DCE epoxide transformation,[8],about 35 hours
same,half-life of abiotic transformation of cis-DCE epoxide,[9],70 h
Tetrakis(1-hydroxypropoxy) silane [compound 17],Hydrolysis rate,[1]; [10],Fast
"CCC(C)O[Si](OC(C)CC)(OC(C)CC)OC(C)CC (stereo not shown) [compound 14, Tetrakis(1-methylpropoxy) silane]",Hydrolysis rate,[1]; [10],Slow (Slow - 1 month)
c1ccc(O[Si](Oc2ccccc2)(Oc2ccccc2)O[Si](Oc2ccccc2)(Oc2ccccc2)Oc2ccccc2)cc1 [compound 22],Hydrolysis rate,[1]; [11],Slow (Slow - 1 month)
"C=CCl [VC, vinyl chloride]",incubation time after which dechlorination of the substance was observed,[4],about 125 days
"CC(C)CO[Si](OCC(C)C)(OCC(C)C)OCC(C)C [compound 15, Tetrakis(2-methylpropoxy) silane]",Hydrolysis rate,[1]; [10],Slow (Slow - 1 month)
"CCCO[Si](OCCC)(OCCC)OCCC [compound 1, Tetrapropoxysilane]",Hydrolysis rate,[1]; [10],Slow (Slow - 1 month)
"CCC(CC)CO[Si](OCC(CC)CC)(OCC(CC)CC)OCC(CC)CC [compound 3, Tetrakis(2-ethylbutoxy) silane]",Hydrolysis rate,[1]; [10],Very Slow
CCO[Si](OCC)(OCC)O[Si](OCC)(OCC)O[Si](OCC)(OCC)OCC [compound 23],Hydrolysis rate,[1]; [11],Slow (Slow - 1 month)

# From US6472198B1, “Slow release substrates for driving microbial transformations of environmental contaminants” (The State of Oregon Acting by and through the State Board …, priority 1998, dated 2002)
